Measured values reported in patent publication US20060030537A1, “Ceramide kinase and uses thereof” (priority 2004, published 2006).

How the values were obtained:
[1] = test system: ceramide kinase; experiment: Ceramide kinase assay on lysates of treated or transfected A549 cells; format: cell-based, human
Experimental: (§1) FIGS. 5A-5C. IL-1β and calcium ionophore increase ceramide-1-phosphate production and ceramide kinase activity. FIGS. 5A and 5B. The effect of IL-1 and A23187 on C-1-P levels and AA liberation. A549 cells (2×10^5) were labeled overnight with 10 μCi/mL [^3H]-arachidonic acid (10 nM), washed, and then treated with either 2.5 ng/mL of IL-1β (FIG. 5A) or 1 μg/mL of A23187 (FIG. 5B) for the indicated times. Two hours prior to Bligh-Dyer extraction, cells were chased with 20 μM of D-e-C6 NBD-ceramide (Matreya). At the appropriate times, media was taken for AA analysis, and lipids from the cells were extracted by the Bligh-Dyer method followed by analysis of NBD-C-1-P formation. Data are presented as % control of C-1-P levels (J) and AA release (B). Data are representative of three separate determinations on 2 separate occasions. FIG. 5C. IL-1β and calcium ionophore increase ceramide kinase activity. A549 cells (5×10^5) were treated with either 2.5 ng/mL of IL-1β for 3.5 hours or 1 μg/mL of A23187 for 5 minutes. Cells were then washed, lysed in assay buffer, and assayed for ceramide kinase activity. Data is presented as % control of ceramide kinase activity (Arbitrary densitometry units of fluorescent NBD-C-1-P produced/min/mg of total cellular protein). Data are representative of three separate determinations on 2 separate occasions.
FIGS. 6A-6B. Ceramide kinase RNAi downregulates endogenous ceramide kinase activity and mRNA levels. FIG. 6A. The effect of ceramide kinase RNAi on endogenous ceramide kinase activity. […] Following the same procedure as outlined in FIG. 6A, total RNA was extracted and analyzed via logarithmic reverse-transcriptase polymerase chain reaction for human ceramide kinase and 18s ribosomal RNA. […]
Ceramide Kinase Assay: Ceramide kinase activity was measured as described previously with slight modifications (Bajjalieh, S., and Batchelor, R. (2001) Methods Enzymol. 311, 207-215). […] Following Bligh-Dyer extraction, lipids were separated by thin layer chromatography, and NBD-C-1-P was visualized/quantified by fluorescent phosphorimaging.

[2] = test system: A549 cells; experiment: Quantification of arachidonic acid (AA) release in A549 cells; format: cell-based; conditions: for AA release (lipid specificity): 1 μM lipid, 2 hours
Experimental: (§2) Cell Culture: A549 lung adenocarcinoma cells (epithelial-derived) were grown in low glucose DMEM (Invitrogen) supplemented with L-glutamine, 10% (v/v) fetal bovine serum (Invitrogen), 200 U/ml of penicillin G sodium, and 200 μg/ml of streptomycin sulfate. Cells were maintained under 80% confluency and standard incubator conditions (humidified atmosphere, 95% air, 5% CO2, 370 C). For treatment, cells were incubated for 2 hours in low glucose DMEM (Invitrogen) supplemented with L-glutamine, 2% (v/v) fetal bovine serum (Invitrogen), 200 U/ml of penicillin G sodium, and 200 μg/ml of streptomycin sulfate prior to the addition of agonist.
(§3) Quantification of arachidonic acid (AA) release: A549 cells (5×10^4) were labeled overnight with 5 μCi/mL [^3H]-AA (5 nM) (NEN). Cells were washed and incubated in DMEM supplemented with 2% fetal bovine serum for 2 hours. Following treatment, media was transferred to 1.5 mL polypropylene tubes, centrifuged at 10,000×g, and ^3H-AA cpm determined by scintillation counting. Results were controlled for equivalent number of cells quantified by MTT assay as described (Chalfant, C. E., Rathman, K., Pinkerman, R. L., Wood, R. E., Obeid, L. M., Ogretmen, B., and Hannun, Y. A. (2002) J. Biol. Chem. 277, 12587-12595) and by verification of total AA labeling by scintillation counting. For the experiments in FIG. 4, purified SMase D was obtained from Dr. Alfred H. Merrill, Jr., and SMase C (purified from Bacillus cereus) was obtained commercially from Sigma.
RNAi design and transfections: Knock-downs of ceramide kinase were performed essentially as described using sequence specific siRNA reagents (http:www.mpibpc.gwdg.de/abteilungen/100/105/sirna.html) (Lassus, P., Opitz-Araya, X., and Lazebnik, Y. (2002) Science 297, 1352-1354) using human ceramide kinase RNAi starting 142 nucleotides from start codon ([…]dTd (SEQ ID NO: 3) and […]dTd (SEQ ID NO:4)). All sequences were evaluated against the database using the NIH blast program to test for specificity (Xeragon, A Qiagen Company). A549 cells (3×10^4) were transfected with the 21-nucleotide duplexes using OligofectAMINE (Invitrogen) as recommended by the manufacturer. Following the 4 hour transfection, cells were treated and assayed for AA release or PGE2 synthesis at 26 hours post-transfection.

[3] = test system: C-1-P levels; experiment: Ceramide-1-phosphate levels by pulse-labeling with D-e-C6 NBD-ceramide in A549 cells; format: cell-based
Experimental: as §1
Quantification of ceramide-1-phosphate levels by pulse-labeling with D-e-C6 NBD-ceramide: Two hours prior to Bligh-Dyer extraction, cells were chased with 20 μM of D-e-C6 NBD-ceramide (Matreya). At the appropriate times, lipids were extracted by the Bligh-Dyer method, analyzed for NBD-C-1-P formation using TLC analysis, and results normalized to total lipid phosphate as described (Perry, D. K., Bielawska, A., and Hannun, Y. A. (2000) Methods Enzymol. 312, 22-31).

[4] = test system: COX-2; experiment: COX-2 expression by western immunoblotting; format: cell-based
[5] = test system: A549 cells; experiment: Quantification of prostaglandin E2 synthesis in A549 cells (EIA); format: cell-based; conditions: 2.5 μM, only after 1 hour
Experimental: as §2
Quantification of prostaglandin E2 and thromboxane B2 synthesis: For measurement of PGE2 and TXB2 levels, aliquots of media were taken at indicated time points and assayed according to manufacturer's instructions using the prostaglandin E2 and thromboxane B2 monoclonal EIA Kit from Cayman Chemical. Briefly, media containing PGE2 or TXB2 competes with PGE2 or TXB2 acetylcholinesterase conjugate for a limited amount of monoclonal antibody. The antibody-PGE2 or -TXB2 conjugate binds to a goat-anti-mouse antibody previously attached to the 96-well plate. The plate is washed to remove unbound reagents and then the substrate for acetylcholinesterase is provided. […] Results were controlled for equivalent number of cells quantified by MTT assay. […]

[6] = biological target: protein phosphatase-1; experiment: Inhibition of protein phosphatase-1; format: biochemical
[7] = test system: L929 fibroblasts; experiment: AA release in L929 fibroblasts; format: cell-based; conditions: 1 μM, after 1 hour
Experimental: (§4) FIGS. 3A-3B. FIG. 3A. The effects of ceramide-1-phosphate on TXB2 synthesis. A549 cells (1×10^5) were treated with D-e-C16 ceramide-1-phosphate (1 μM) solubilized in 2% dodecane/98% ethanol (final concentration in treatments was 0.002% dodecane/0.098% ethanol (EtOH)) for the indicated times. The results are presented as % control of TXB2 controlled for equivalent number of cells by MTT assay. Data are representative of 3 separate determinations on 2 separate occasions. FIG. 3B. The effects of ceramide-1-phosphate on AA release and PGE2 synthesis in L929 fibroblasts. L929 cells (5×10^4) were labeled overnight with 5 μCi/mL [^3H]-arachidonic acid (5 nM). Cells were washed and placed in DMEM supplemented with 2% fetal bovine serum for two hours. […]
as §3, with “Cells were washed and incubated in DMEM supplemented with 2% fetal bovine serum for 2 hours.” left out, “For the experiments in FIG. 4, purified SMase D was obtained from Dr. Alfred H. Merrill, Jr., and SMase C (purified from Bacillus cereus) was obtained commercially from Sigma.” left out

[8] = test system: A549 cells; experiment: Quantification of thromboxane B2 synthesis in A549 cells (EIA); format: cell-based; conditions: 1 μM
Experimental: as §4, with “hours. Cells were then treated with 2.5 μM D-e-C16 ceramide-1-phosphate (solubilized in 98% ethanol/2% dodecane) for the indicated times.” for “hours.”
(§5) Quantification of prostaglandin E2 and thromboxane B2 synthesis: For measurement of PGE2 and TXB2 levels, aliquots of media were taken at indicated time points and assayed according to manufacturer's instructions using the prostaglandin E2 and thromboxane B2 monoclonal EIA Kit from Cayman Chemical. […] Results were controlled for equivalent number of cells quantified by MTT assay.

[9] = biological target: protein phosphatase 2A; experiment: Inhibition of protein phosphatase 2A; format: biochemical
[10] = test system: L929 fibroblasts; experiment: PGE2 synthesis in L929 fibroblasts; format: cell-based; conditions: L929 fibroblasts that do not express COX-2
Experimental: as §4, with “hours. Cells were then treated with 2.5 μM D-e-C16 ceramide-1-phosphate (solubilized in 98% ethanol/2% dodecane) for the indicated times.” for “hours.”
as §5

`CNc1ccc2oc(C[C@H]3O[C@@]4(CC[C@H]3C)O[C@H]([C@H](C)C(=O)c3ccc[nH]3)[C@H](C)C[C@H]4C)nc2c1C(=O)O` [A23187] was tested, and the “increase of ceramide kinase activity” value ([1]; 1 μg/mL, 5 minutes) was 216%, the “time to increased AA release” value ([2]; 1 μg/mL) was “within minutes” and the “maximal increase in C-1-P levels” value ([3]; 1 μg/mL, after 10 minutes) was “approximately 4 fold”. For the same compound, the C-1-P levels ([3]; 1 μg/mL, within 5 minutes of treatment) was “significant increase”.

In the case of `CCCCCCCCCCCCC/C=C/[C@@H](O)[C@H](COP(=O)(O)O)NC(=O)CCCCCCCCCCCCCCC` [C-1-P, D-erythro-C16 ceramide-1-phosphate], the “expression of COX-2” value [4] is reported as “no effect”, the “concentration as low as which induces a significant increase in AA release” value [2] is reported as 100 nM and the “AA release (lipid specificity)” value [2] is reported as “induced significant AA release”. The “maximal early increase in AA release” value ([2]; 2.5 μM, after 20 minutes) was “approximately 2 fold”, the AA release ([2]; 2.5 μM, after 1 hour, following reuptake) was “sustained increase” and the EC50 ([2]; 8 hours, read-out: EC50 of effect on AA release) was 400 nM. For the same compound, the PGE2 synthesis [5] was “Increased”, the IC50 [6] was 50 nM and the “AA release over basal release” value [7] was 225%. For the same compound, the “increase of TXB2” value ([8]; after 2 hours) was 2.5 fold, the “increase of TXB2” value ([8]; after 4 hours) was 11 fold and the IC50 [9] was 50 nM. For the same compound, the PGE2 synthesis/release [10] was “not observed”.

For `CCCCCCCCCCCCC/C=C/[C@@H](O)[C@H](CO)NC(=O)CCCCCCCCCCCCCCC` [CER, D-erythro C16 ceramide], the “AA release (lipid specificity)” value [2] was “small increase” and the “AA release, long term treatment” value ([2]; 8 hours) was “no further increase”.

In the case of `CCCCCCCC/C=C\CCCCCCCC(=O)OC[C@H](COP(=O)(O)O)OC(=O)CCCCCCC/C=C\CCCCCCCC` [PA, di-oleoyl phosphatidic acid], the “AA release (lipid specificity)” value [2] is reported as “Only C-1-P induced significant AA release”.

With `CCCCCCCCCCCCC/C=C/[C@@H](O)[C@@H](N)COP(=O)(O)O` [S-1-P, D-erytho-sphingosine-1-phosphate] the “AA release (lipid specificity)” value [2] was “Only C-1-P induced significant AA release”.

With IL-1β the “increase of ceramide kinase activity” value ([1]; 2.5 ng/mL, 3.5 hours) was 187% and the “increase in C-1-P levels” value ([3]; 2.5 ng/mL, after 4 hours) was 242%.

With di-oleoylglycerol [DAG] the “AA release (lipid specificity)” value [2] was “Only C-1-P induced significant AA release”.
